Measurements published in ChEMBL document CHEMBL1127631, “Three-dimensional structure-activity analysis of a series of porphyrin derivatives with anti-HIV-1 activity targeted to the V3 loop of the gp120 envelope glycoprotein of the human immunodeficiency virus type 1” (J Med Chem, 1994).

System: Human immunodeficiency virus 1
Test: Inhibition of HIV-1 P24 production.
Type: functional, organism-based
[1] = read-out: Log 1/EC50 (converted)

`O=C(O)CCC1=C(CC(=O)O)c2cc3nc(cc4[nH]c(cc5[nH]c(cc1n2)c(CC(=O)O)c5CCC(=O)O)c(CC(=O)O)c4CCC(=O)O)C(CC(=O)O)=C3CCC(=O)O` gave an EC50 (Human immunodeficiency virus 1) of 9.04 µM and an EC50 [1] of 9.12 µM.
`CC1=C(CCC(=O)O)c2cc3[nH]c(cc4[nH]c(cc5nc(cc1n2)C(CCC(=O)O)=C5CC(=O)O)c(CCC(=O)O)c4CC(=O)O)c(CCC(=O)O)c3CC(=O)O` showed an EC50 (Human immunodeficiency virus 1) of 10.7 µM and an EC50 [1] of 10.7 µM.
For `C=Cc1c(C)c2cc3[nH]c(cc4nc(cc5nc(cc1[nH]2)C(C)=C5CCC(=O)O)C(CCC(=O)O)=C4C)c(C)c3C(C)O` (stereo unspecified), the EC50 (Human immunodeficiency virus 1) was 6.16 µM and the EC50 [1] was 6.17 µM.
Work on HEMIN yielded an EC50 of 35.3 µM.
`CN1C2C=CC1/C(c1ccc(C(=O)O)cc1)=c1/cc/c([nH]1)=C(\c1ccc(C(=O)O)cc1)C1=N/C(=C(/c3ccc(C(=O)O)cc3)C3=N/C(=C\2c2ccc(C(=O)O)cc2)C=C3)C=C1` (stereo unspecified) showed an EC50 (Human immunodeficiency virus 1) of 0.774 µM and an EC50 [1] of 1.29 µM.
For `O=C(O)C1=CC(=C(c2ccc(O)c(C(=O)O)c2)c2ccc(O)c(C(=O)O)c2)C=CC1=O` [AURINTRICARBOXYLIC ACID], the EC50 (Human immunodeficiency virus 1) was 28.4 µM.
`CC1=C(CCC(=O)O)c2cc3[nH]c(cc4[nH]c(cc5nc(cc1n2)C(CCC(=O)O)=C5CC(=O)O)c(CCC(=O)O)c4C)c(CCC(=O)O)c3CC(=O)O` showed an EC50 (Human immunodeficiency virus 1) of 20.7 µM and an EC50 [1] of 20.9 µM.
Molecule `O=C(O)c1ccc(/C2=C3\C=CC(=N3)/C(c3ccc(C(=O)O)cc3)=c3/cc/c([nH]3)=C(\c3ccc(C(=O)O)cc3)C3C=CC(N3)/C(c3ccc(C(=O)O)cc3)=C3/C=CC2=N3)cc1` (stereo unspecified) has an EC50 (Human immunodeficiency virus 1) of 0.63 µM.
`O=C(O)c1ccc(/C2=C3\C=CC(=N3)/C(c3ccc(Cl)cc3)=C3/C=CC(=N3)/C(c3ccc(C(=O)O)cc3)=c3/cc/c([nH]3)=C(\c3ccc(C(=O)O)cc3)C3C=CC2N3)cc1` (stereo unspecified) showed an EC50 (Human immunodeficiency virus 1) of 0.758 µM and an EC50 [1] of 1.32 µM.
`CC1=C(CCC(=O)O)c2cc3nc(cc4[nH]c(cc5[nH]c(cc1n2)c(CCC(=O)O)c5CC(=O)O)c(CCC(=O)O)c4C)C(CCC(=O)O)=C3C` showed an EC50 (Human immunodeficiency virus 1) of 43.3 µM and an EC50 [1] of 43.7 µM.
`Cc1ccc(/C2=C3\C=CC(=N3)/C(c3ccc(C(=O)O)cc3)=c3/cc/c([nH]3)=C(\c3ccc(C)cc3)C3C=CC(N3)/C(c3ccc(C)cc3)=C3/C=CC2=N3)cc1` (stereo unspecified) was tested, and the EC50 (Human immunodeficiency virus 1) was 14.7 µM and the EC50 [1] was 14.8 µM.
In the case of `O=C(O)c1ccc(/C2=C3\C=CC(=N3)/C(c3ccccc3)=c3/cc/c([nH]3)=C(\c3ccc(C(=O)O)cc3)C3C=CC(N3)/C(c3ccc(C(=O)O)cc3)=C3/C=CC2=N3)cc1` (stereo unspecified), the EC50 (Human immunodeficiency virus 1) is reported as 0.612 µM.
With `C1=C/C2=C(\c3ccccc3)C3C=CC(N3)/C(c3ccccc3)=c3/cc/c([nH]3)=C(\c3ccccc3)C3=N/C(=C(/c4ccccc4)C1=N2)C=C3` (stereo unspecified) the EC50 (Human immunodeficiency virus 1) was 54.7 µM and the EC50 [1] was 55 µM.
Work on `C=CC1=C(C)c2cc3nc(cc4[nH]c(cc5[nH]c(cc1n2)c(C)c5CO)c(C)c4CCC(=O)O)C(CCC(=O)O)=C3C` yielded an EC50 (Human immunodeficiency virus 1) of 5.59 µM and an EC50 [1] of 5.62 µM.
In the case of `NC(=O)c1ccc(/C2=C3\C=CC(=N3)/C(c3ccc(C(N)=O)cc3)=c3/cc/c([nH]3)=C(\c3ccc(C(N)=O)cc3)C3C=CC(N3)/C(c3ccc(C(N)=O)cc3)=C3/C=CC2=N3)cc1` (stereo unspecified), the EC50 (Human immunodeficiency virus 1) is reported as 1.07 µM and the EC50 [1] is reported as 1.07 µM.
`C=Cc1c(C)c2cc3[nH]c(cc4nc(cc5nc(cc1[nH]2)C(C)=C5CCC(=O)OC)C(CCC(=O)OC)=C4C)c(C)c3C=C` was tested, and the EC50 (Human immunodeficiency virus 1) was 67.9 µM and the EC50 [1] was 67.6 µM.
With `O=C(O)CCC1=C(CC(=O)O)c2cc3nc(cc4[nH]c(cc5[nH]c(cc1n2)c(CCC(=O)O)c5CC(=O)O)c(CC(=O)O)c4CCC(=O)O)C(CC(=O)O)=C3CCC(=O)O` the EC50 (Human immunodeficiency virus 1) was 3.02 µM and the EC50 [1] was 3.02 µM.
`C=CC1=C(C)c2cc3nc(cc4[nH]c(cc5c(C=C)c(C)c(cc1n2)n5C)c(C)c4CCC(=O)O)C(CCC(=O)O)=C3C` showed an EC50 (Human immunodeficiency virus 1) of 1.03 µM and an EC50 [1] of 1.02 µM.
Work on `C=CC1=C(C)c2cc3[nH]c(cc4nc(cc5[nH]c(cc1n2)c(C)c5CCC(=O)O)C(CCC(=O)O)=C4C)c(C)c3C=C` [PROTOPORPHYRIN] yielded an EC50 (Human immunodeficiency virus 1) of 2.17 µM and an EC50 [1] of 2.19 µM.
`CC1=C(C(O)CO)c2cc3nc(cc4[nH]c(cc5[nH]c(cc1n2)c(C)c5CCC(=O)O)c(CCC(=O)O)c4C)C(C(O)CO)=C3C` (stereo unspecified) gave an EC50 (Human immunodeficiency virus 1) of 54.4 µM and an EC50 [1] of 55 µM.
